Laboratory results reported in US9909086B2, “Green glycine betaine derivative compounds and compositions containing same” (priority 2012, dated 2018).

How the values were obtained:
Surface tension = format: physicochemical; details: pure
Source text: Surface properties of betainyl amino alkyl(ene) methane sulfonates and alkyl(ene) betainate methane sulfonate surfactants are set forth below in Table 5. […] Comparative examples are provided by the GLUCOPON surfactants (commercially available from BASF, formerly known as Cognis) which are alkyl polyglucosides having a carbon length as indicated.

Foamability = format: physicochemical; details: concentration at CMC, flow rate 14 l/min
Source text: The surfactants of the invention also have foaming ability. This foaming ability is able to be effectively manipulated, i.e., foaming density increased, based on hydrocarbon chain length.

[1] = Interfacial tension, emulsifying sunflower oil in water; format: physicochemical; details: purified
[2] = Wetting properties, contact angles on treated substrates; format: physicochemical
[3] = Viscosity (thickening and gelling); format: physicochemical; details: aqueous solution
Source text: Table 15 below illustrates the thickening of GB stearic amine aqueous solution as a function of concentration and time.
The examples of Table 15 are compounds present in water alone and, thus, the viscosity continues to change. After a certain point, the viscosity will plateau and not change anymore. If the surfactant is provided at a predetermined concentration, the desired viscosity will be reached right away and not continue to increase due to the stability provided. Thus, generally, as the surfactant concentration increases, so does the initial viscosity. Also over a period of time, the viscosity increases. The viscosity can be controlled to terminate the viscosity increase, i.e., achieve a pre-determined viscosity, by adding salts to the composition. Preferred salts are sodium chloride, potassium chloride, magnesium, chloride, and lithium chloride. Another feature of the invention is the ability to combine GB surfactants with natural polysaccharides to form gel and pseudoplastic viscous liquids or gels. Examples of polysaccharides are agar, carregenan, natural gum, pectin, gelatin, starch, cellulose derivatives, cellulose derived from wood pulp fiber, lignin, etc. […]

[4] = aqueous solution; 20 seconds contact time; pure
[5] = surfactant concentration 1 % w/w
[6] = surfactant concentration 2 % w/w
[7] = surfactant concentration 3 % w/w
[8] = surfactant concentration 4 % w/w
[9] = surfactant concentration 5 % w/w
[10] = surfactant concentration 6 % w/w

Question: Which “Surface Tension @ CMC” value (Surface tension) does the source give for CCCCCCCCCCCCNC(=O)C[N+](C)(C)C.CS(=O)(=O)[O-] [GB Lauric amide, Betainyl amino dodecane methane sulfonate] here?
Answer: 38 mN/m

Question: For CCCCCCCCCCCCCCNC(=O)C[N+](C)(C)C.CS(=O)(=O)[O-] [GB Myristic amide, Betainyl amino tetradecane methane sulfonate], which “Surface Tension @ CMC” value (Surface tension) is on record?
Answer: 38 mN/m

Question: Which results are given for CCCCCCCC/C=C\CCCCCCCCNC(=O)C[N+](C)(C)C.CS(=O)(=O)[O-] [GB Oleic amide C18:1) pure, (Z)-betainyl amino octadec-9-ene methane sulfonate, pure]?
Answer: Foam density (Foamability): 18 g/L; Time t: the time to fill 2 liters (Foamability): 85 s

Question: With CCCCCCCC/C=C\CCCCCCCCNC(=O)C[N+](C)(C)C.CS(=O)(=O)[O-] [GB Oleic amide, (Z)-betainyl amino octadec-9-ene methane sulfonate] as the compound, how does the “Surface Tension @ CMC” value (Surface tension) read?
Answer: 36 mN/m

Question: And the IFT [1]?
Answer: 5.5 mN/m

Question: What about the “Contact angle on treated substrate, Enamel Tiles” value ([2]; surfactant conc. 1 % (w/w)) of the same compound?
Answer: 27.6 °

Question: And the “Contact angle on treated substrate, Glass” value ([2]; surfactant conc. 1 % (w/w))?
Answer: 22.6 °

Question: What about the “Contact angle on treated substrate, Kitchen Soil” value ([2]; surfactant conc. 1 % (w/w)) of the same compound?
Answer: 46.4 °

Question: And the “Contact angle on treated substrate, Soap Scum” value ([2]; surfactant conc. 1 % (w/w))?
Answer: 31.1 °

Question: And the “Contact angle on treated substrate, Enamel Tiles” value ([2]; surfactant conc. 3 % (w/w))?
Answer: 26.8 °

Question: And the “Contact angle on treated substrate, Glass” value ([2]; surfactant conc. 3 % (w/w))?
Answer: 18.8 °

Question: What about the “Contact angle on treated substrate, Kitchen Soil” value ([2]; surfactant conc. 3 % (w/w)) of the same compound?
Answer: 38.1 °

Question: What about the “Contact angle on treated substrate, Soap Scum” value ([2]; surfactant conc. 3 % (w/w)) of the same compound?
Answer: 31.3 °

Question: Which “Surface Tension @ CMC” value (Surface tension) does the source give for CCCCCCCCCCCCCCCCNC(=O)C[N+](C)(C)C.CS(=O)(=O)[O-] [GB Palmitic amide, Betainyl amino hexadecane methane sulfonate] here?
Answer: 37 mN/m

Question: Which results are given for CCCCCCCCCCCCCCCCCCNC(=O)C[N+](C)(C)C.CS(=O)(=O)[O-] [GB Stearic amide, Betainyl amino octadecane methane sulfonate]?
Answer: Surface Tension @ CMC (Surface tension): 39 mN/m; IFT [1]: 5.2 mN/m; Contact angle on treated substrate, Enamel Tiles ([2]; surfactant conc. 1 % (w/w)): 35.4 °; Contact angle on treated substrate, Glass ([2]; surfactant conc. 1 % (w/w)): 23.1 °; Contact angle on treated substrate, Kitchen Soil ([2]; surfactant conc. 1 % (w/w)): 39.7 °; Contact angle on treated substrate, Soap Scum ([2]; surfactant conc. 1 % (w/w)): 31.6 °; Contact angle on treated substrate, Enamel Tiles ([2]; surfactant conc. 3 % (w/w)): 27.1 °; Contact angle on treated substrate, Glass ([2]; surfactant conc. 3 % (w/w)): 19.4 °; Contact angle on treated substrate, Kitchen Soil ([2]; surfactant conc. 3 % (w/w)): 34.6 °; Contact angle on treated substrate, Soap Scum ([2]; surfactant conc. 3 % (w/w)): 34.3 °; Initial Viscosity [3, 5]: 120 cP; Viscosity after 15 days [3, 5]: 160 cP; Initial Viscosity [3, 6]: 160 cP; Viscosity after 15 days [3, 6]: 639 cP; Initial Viscosity [3, 7]: 160 cP; Viscosity after 15 days [3, 7]: 807 cP; Initial Viscosity [3, 8]: 2259 cP; Viscosity after 15 days [3, 8]: 3626 cP; Initial Viscosity [3, 9]: 3039 cP; Viscosity after 15 days [3, 9]: 6079 cP; Initial Viscosity [3, 10]: 5279 cP; Viscosity after 15 days [3, 10]: 8851 cP; Bathroom Soap Scum Solubilized [4]: 35%
